Measurements reported in patent publication US20240174744A1, “METHODS OF TREATMENT USING PROTEIN BINDERS TO IRHOM2 EPITOPES” (SCIRHOM GMBH, priority 2021, published 2024).

Test system: PMA-induced release of IL-6R from U-937 cells
Test: ELISA-based IL-6R release assay, PMA-stimulated U-937 cells
Assay type: cell-based
Conditions: Homo sapiens, U-937, 1 h, Batimastat 10 μM, PMA 62.5 ng/ml
Protocol: Complementary to Example 26 described above, ELISA-based IL-6R release assays were performed to verify the inhibitory effects of the antibodies of the present disclosure on PMA-induced release of endogenous IL-6R from human U-937 cells.
In brief, on day 1, Nunc black MaxiSorp® 96-well plates (Thermo Fisher Scientific, USA) were coated overnight with 100 μl per well of mouse anti-human IL-6R capture antibody (provided as part of the DuoSet ELISA kit) at 2 μg/ml TBS at 4° C. On day 2, the capture antibody solution was removed and MaxiSorp® plates were blocked with 300 μl per well of TBS, 1% BSA at room temperature for 1-2 hours. […] Using an infinite M1000 (Tecan Group, Switzerland) microplate reader, the fluorescence of each well was collected at an excitation wavelength of 435 nm and an emission wavelength of 555 nm. […]

`CNC(=O)[C@H](Cc1ccccc1)NC(=O)[C@H](CC(C)C)[C@H](CSc1cccs1)C(=O)NO` [Batimastat] showed an inhibition at 10 µM (murine (m) and chimeric (ch) antibodies 3 μg/ml) of 91.6% and an inhibition at 10 µM (recombinant murine antibodies 1 μg/ml) of 86.6%.
